The values below come from patent US12661410B2, “Compounds for targeted degradation of RET” (C4 Therapeutics, Inc., priority 2020, dated 2026).

Each structure is given as a SMILES string. Where a chain is given by its changes, count along the chain named. Like-named read-outs stand apart in the source and are kept apart here.

One assay has as its target T1, RET(KD: 658-1114 G810R) (Homo sapiens, UniProt P07949, G810R).
T1 construct: 658-1114; expressed in transfected cells; host or cells: 293T.165 (293T cells, generated in-house)
T1 sequence (P07949 658-1114 G810R): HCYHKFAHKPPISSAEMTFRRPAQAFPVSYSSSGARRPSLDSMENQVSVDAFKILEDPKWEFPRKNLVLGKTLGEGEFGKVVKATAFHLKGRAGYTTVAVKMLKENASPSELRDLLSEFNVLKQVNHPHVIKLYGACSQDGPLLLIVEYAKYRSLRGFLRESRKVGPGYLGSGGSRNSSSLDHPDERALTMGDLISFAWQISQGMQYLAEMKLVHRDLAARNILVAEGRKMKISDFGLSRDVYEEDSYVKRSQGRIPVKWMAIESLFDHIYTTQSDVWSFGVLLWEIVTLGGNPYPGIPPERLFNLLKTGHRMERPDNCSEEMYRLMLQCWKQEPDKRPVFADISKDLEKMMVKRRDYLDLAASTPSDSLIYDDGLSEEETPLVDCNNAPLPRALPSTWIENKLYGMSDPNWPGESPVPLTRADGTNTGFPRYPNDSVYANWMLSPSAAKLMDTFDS
In words: HiBiT-Degradation, RET G810R degradation assay (Nano-Glo HiBiT Lytic), 293T.165 cells. In kind it is cell-based. To be noted: for Emax / DC50: 6.0 hours; for DC50: read-out: 293T.165 RET(KD: 658-1114 G810R) 6.0 hours (DC50). The method, boiled down: (§1)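 Luminescence readout of HiBiT-tagged RET kinase domain remaining after 6 h compound exposure. Cells: 293T.144 (wild type) or 293T.165 (G810R), 11 half-log doses up to 10 μM, duplicates. DC50 and Emax as % remaining protein taken from curve fits.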
A general note: HiBiT is a short tag that completes a luciferase, so light tracks the accessible tagged protein.

The next assay has as its target T2, RET (658-1114) (Homo sapiens, UniProt P07949).
T2 construct: 658-1114; expressed in transfected cells; host or cells: 293T.144 (293T cells, generated in-house)
T2 sequence (P07949 658-1114): T1 sequence (P07949 658-1114 G810R) with R153G
The assay can be described thus: HiBiT-Degradation, RET wild-type degradation assay (Nano-Glo HiBiT Lytic), 293T.144 cells. It is filed as cell-based. To be noted: for Emax / DC50: 6.0 hours. The method, boiled down: as §1

The mark [1] stands for this setting: % remaining protein, read-out: 293T.165 RET(KD: 658-1114 G810R) 6.0 hours (Emax).
The mark [2] stands for this setting: half-maximal degradation concentration.
The mark [3] stands for this setting: % remaining protein, read-out: 293T.144 RET (658-1114) 6.0 hours (Emax).
The mark [4] stands for this setting: half-maximal degradation concentration, read-out: 293T.144 RET (658-1114) 6.0 hours (DC50).

By Emax is commonly meant the greatest response seen or fitted, relative to the assay's reference. Usually DC50 stands for the midpoint of the concentration-degradation curve. As for `CCC1(C(=O)Nc2ccc(F)cc2)CCN(c2ccc(-c3nc(-c4cnn(C5CCN(C(=O)CC6(O)CCN(c7ccc(NC8CCC(=O)NC8=O)cc7Cl)CC6)CC5)c4)cn4ncc(C#N)c34)cn2)CC1` (centres unmarked) [Compound 100, 1-[5-[6-[1-[1-[2-[1-[2-chloro-4-[(2,6-dioxo-3-piperidyl)amino]phenyl]-4-hydroxy-4-piperidyl]acetyl]-4-piperidyl]pyrazol-4-yl]-3-cyano-pyrazolo[1,5-a]pyrazin-4-yl]-2-pyridyl]-4-ethyl-N-(4-fluorophenyl)piperidine-4-carboxamide], the “293T.165 RET(KD: 658-1114 G810R) 6.0 hours (IP) [nM]” value on RET(KD: 658-1114 G810R) is “++++ (<50 nM = ++++)”. In addition, the Emax on RET(KD: 658-1114 G810R) (setting [1]) and at RET (658-1114) (setting [3]) was less than 30% each time. For the same compound, the DC50 on RET(KD: 658-1114 G810R) (setting [2]) was less than 0.1 µM; on RET (658-1114) (setting [4]), less than 0.05 µM. Besides, on RET (658-1114), the “293T.144 RET (658-1114) 6.0 hours (IP) [nM]” value is listed as “++++ (<50 nM = ++++)”.

On to `CCC1(C(=O)NC(C)C)CCN(c2ccc(-c3nc(-c4cnn(C5CC6(C5)CN(C(=O)CC5(O)CCN(c7ccc(NC8CCC(=O)NC8=O)cc7F)CC5)C6)c4)cn4ncc(C#N)c34)cn2)CC1` (centres unmarked) [Compound 183, 1-[5-[3-cyano-6-[1-[2-[2-[1-[4-[(2,6-dioxo-3-piperidyl)amino]-2-fluoro-phenyl]-4-hydroxy-4-piperidyl]acetyl]-2-azaspiro[3.3]heptan-6-yl]pyrazol-4-yl]pyrazolo[1,5-a]pyrazin-4-yl]-2-pyridyl]-4-ethyl-N-isopropyl-piperidine-4-carboxamide], for which, on RET(KD: 658-1114 G810R), the “293T.165 RET(KD: 658-1114 G810R) 6.0 hours (IP) [nM]” value is reported as “++++ (<50 nM = ++++)”. The maximal response (Emax) at RET(KD: 658-1114 G810R) (setting [1]) and at RET (658-1114) (setting [3]) was less than 30% throughout. Besides, the DC50 on RET(KD: 658-1114 G810R) (setting [2]) and on RET (658-1114) (setting [4]) was less than 0.05 µM throughout. Further, on RET (658-1114), the “293T.144 RET (658-1114) 6.0 hours (IP) [nM]” value is “++++ (<50 nM = ++++)”.

As to `CC(C)Oc1ccc(CN2[C@@H]3COC[C@H]2CN(c2ccc(-c4nc(-c5cnn([C@H]6CC[C@H](N7CCN(c8c(F)cc(NC9CCC(=O)NC9=O)cc8F)CC7)CC6)c5)cn5ncc(C#N)c45)cn2)C3)cn1` (mixture of isomers) [Compound 213, 6-[1-[4-[4-[4-[(2,6-dioxo-3-piperidyl)amino]-2,6-difluoro-phenyl]piperazin-1-yl]cyclohexyl]pyrazol-4-yl]-4-[6-[rac-(1R,5S)-9-[(6-isopropoxy-3-pyridyl)methyl]-3-oxa-7,9-diazabicyclo[3.3.1]nonan-7-yl]-3-pyridyl]pyrazolo[1,5-a]pyrazine-3-carbonitrile], the “293T.165 RET(KD: 658-1114 G810R) 6.0 hours (IP) [nM]” value at RET(KD: 658-1114 G810R) is “+++ (<100 nM = +++)”. Besides, the maximum response (Emax) at RET(KD: 658-1114 G810R) (setting [1]) and on RET (658-1114) (setting [3]) was less than 30% throughout. In addition, the 50% degradation concentration (DC50) was less than 0.1 µM at RET(KD: 658-1114 G810R) (setting [2]) and less than 0.05 µM at RET (658-1114) (setting [4]). Also, on RET (658-1114), the “293T.144 RET (658-1114) 6.0 hours (IP) [nM]” value is reported as “++++ (<50 nM = ++++)”.

Regarding `COc1cc(N2CCN([C@H]3CC[C@H](n4cc(-c5cn6ncc(C#N)c6c(-c6ccc(N7CC8COCC(C7)N8C(=O)OC(C)(C)C)nc6)n5)cn4)CC3)CC2)c(F)cc1NC1CCC(=O)NC1=O` (relative stereo) [Compound 163, tert-butyl 7-[5-[3-cyano-6-[1-[4-[4-[4-[(2,6-dioxo-3-piperidyl)amino]-2-fluoro-5-methoxy-phenyl]piperazin-1-yl]cyclohexyl]pyrazol-4-yl]pyrazolo[1,5-a]pyrazin-4-yl]-2-pyridyl]-3-oxa-7,9-diazabicyclo[3.3.1]nonane-9-carboxylate], the “293T.165 RET(KD: 658-1114 G810R) 6.0 hours (IP) [nM]” value on RET(KD: 658-1114 G810R) is given as “++++ (<50 nM = ++++)”. Moreover, the Emax at RET(KD: 658-1114 G810R) (setting [1]) and at RET (658-1114) (setting [3]) was less than 30% each time. For the same compound, the figures for the DC50 on RET(KD: 658-1114 G810R) (setting [2]) and at RET (658-1114) (setting [4]) were less than 0.1 µM and less than 0.05 µM, respectively. The “293T.144 RET (658-1114) 6.0 hours (IP) [nM]” value at RET (658-1114) is “++++ (<50 nM = ++++)”.

On to `CCC1(C(=O)NC2CCC2)CCN(c2ccc(-c3nc(-c4cnn([C@H]5CC[C@H](N6CCN(c7cc(OC)c(N[C@@H]8CCC(=O)NC8=O)cc7F)CC6)CC5)c4)cn4ncc(C#N)c34)cn2)CC1` (single isomer, unassigned) [Compound 135], for which, on RET(KD: 658-1114 G810R), the “293T.165 RET(KD: 658-1114 G810R) 6.0 hours (IP) [nM]” value is recorded as “++++ (<50 nM = ++++)”. Moreover, the Emax at RET(KD: 658-1114 G810R) (setting [1]) and at RET (658-1114) (setting [3]) was less than 30% in each case. The DC50 on RET(KD: 658-1114 G810R) (setting [2]) and at RET (658-1114) (setting [4]) was less than 0.05 µM in each case. The “293T.144 RET (658-1114) 6.0 hours (IP) [nM]” value at RET (658-1114) is “++++ (<50 nM = ++++)”.

`CCC1(C(=O)NC(C)C)CCN(c2ccc(-c3cc(-c4cnn([C@H]5CC[C@H](N6CCC(c7ccc(NC8CCC(=O)NC8=O)cc7F)CC6)CC5)c4)cn4ncc(C#N)c34)cn2)CC1` (single isomer, unassigned) [Compound 87, 1-(5-(3-cyano-6-(1-((1r, 4r)-4-(4-(4-((2,6-dioxopiperidin-3-yl)amino)-2-fluorophenyl)piperidin-1-yl)cyclohexyl)-1H-pyrazol-4-yl)pyrazolo[1,5-a]pyridin-4-yl)pyridin-2-yl)-4-ethyl-N-isopropylpiperidine-4-carboxamide]: the Emax was less than 30% at RET(KD: 658-1114 G810R) (setting [1]); less than 30% at RET(KD: 658-1114 G810R) (RET G810R, read-out: HiBiT-Degradation 293T.165 RET(KD: 658-1114 G810R) 6.0 hours (Emax)); less than 30% at RET (658-1114) (RET wild-type, read-out: HiBiT-Degradation 293T.144 RET (658-1114) 6.0 hours (Emax)). For the same compound, on RET(KD: 658-1114 G810R) (RET G810R), the “HiBiT-Degradation 293T.165 RET(KD: 658-1114 G810R) 6.0 hours (IP) [nM]” value was “++++ (< 50 nM = ++++)”. Also, the “HiBiT-Degradation 293T.144 RET (658-1114) 6.0 hours (IP) [nM]” value at RET (658-1114) (RET wild-type) is on record as “++++ (< 50 nM = ++++)”. Further, on RET (658-1114) (RET wild-type, read-out: HiBiT-Degradation 293T.144 RET (658-1114) 6.0 hours (DC50)), the 50% degradation concentration (DC50) was less than 0.05 µM.

Consider `CCC1(C(=O)NC(C)C)CCN(c2ccc(-c3cc(-c4cnn(C5CCN(C(=O)CN6CCC(c7ccc(NC8CCC(=O)NC8=O)cc7F)CC6)CC5)c4)cn4ncc(C#N)c34)cn2)CC1` (centres unmarked) [Compound 3, 1-(5-(3-Cyano-6-(1-(1-(2-(4-(4-((2,6-dioxopiperidin-3-yl)amino)-2-fluorophenyl)piperidin-1-yl)acetyl)piperidin-4-yl)-1H-pyrazol-4-yl)pyrazolo[1,5-a]pyridin-4-yl)pyridin-2-yl)-4-ethyl-N-isopropylpiperidine-4-carboxamide], for which the Emax is less than 30% at RET(KD: 658-1114 G810R) (setting [1]) and less than 30% at RET (658-1114) (HiBiT-Degradation, read-out: 293T.144 RET (658-1114) 6.0 hours (Emax)). The DC50 was less than 0.05 µM at RET(KD: 658-1114 G810R) (setting [2]); less than 0.05 µM on RET(KD: 658-1114 G810R) (HiBiT-Degradation); less than 0.05 µM at RET (658-1114) (HiBiT-Degradation, read-out: 293T.144 RET (658-1114) 6.0 hours (DC50)). The “293T.165 RET(KD: 658-1114 G810R) 6.0 hours (Emax)” value at RET(KD: 658-1114 G810R) (HiBiT-Degradation) was “++++ (< 30% = ++++)”. Also, at RET(KD: 658-1114 G810R) (HiBiT-Degradation), the “293T.165 RET(KD: 658-1114 G810R) 6.0 hours (IP) [nM]” value is given as “++++ (< 50 nM = ++++)”. For the same compound, on RET (658-1114) (HiBiT-Degradation), the “293T.144 RET (658-1114) 6.0 hours (IP) [nM]” value was “++++ (< 50 nM = ++++)”.

With `N#Cc1cnn2cc(-c3cnn([C@H]4CC[C@H](N5CCN(c6c(F)cc(NC7CCC(=O)NC7=O)cc6F)CC5)CC4)c3)nc(-c3ccc(N4CC5CC(C4)N5CC4CCC(F)(F)CC4)nc3)c12` (some centres unmarked) [Compound 214, 4-[6-[6-[(4,4-difluorocyclohexyl)methyl]-3,6-diazabicyclo[3.1.1]heptan-3-yl]-3-pyridyl]-6-[1-[4-[4-[4-[(2,6-dioxo-3-piperidyl)amino]-2,6-difluoro-phenyl]piperazin-1-yl]cyclohexyl]pyrazol-4-yl]pyrazolo[1,5-a]pyrazine-3-carbonitrile], on RET(KD: 658-1114 G810R), the “293T.165 RET(KD: 658-1114 G810R) 6.0 hours (IP) [nM]” value is “+++ (<100 nM = +++)”. The Emax on RET(KD: 658-1114 G810R) (setting [1]) and on RET (658-1114) (setting [3]) was less than 30% in each case. Moreover, the DC50 at RET(KD: 658-1114 G810R) (setting [2]) is less than 0.1 µM; on RET (658-1114) (setting [4]), less than 0.05 µM. At RET (658-1114), the “293T.144 RET (658-1114) 6.0 hours (IP) [nM]” value was “++++ (<50 nM = ++++)”.
